Source: US20080004290A1, “Anti-Cancer Agents” (THE UNIVERSITY OF QUEENSLAND, priority 2003, published 2008)
Read-outs that look alike come from different tables or passages of the source.

Legend:
[1] = test system: MM96L melanoma cells; experiment: Cell survival assay (clonogenic survival, SRB); assay type: cell-based, human; settings: for SI (Selectivity Index = IC50 (NFF)/IC50 (MM96L)): NFF vs MM96L
Method: (§1) The cytotoxicities of the compounds of the invention were determined by clonogenic survival of human cancer cells (MM96L, melanoma) and human normal cells (NFF, neonatal foreskin fibroblasts). Cells were incubated with the compounds at various concentrations of compound (0.01-10 μg/mL) for 24 hours, washed, and then grown for a further four days in the absence of hydroxamic acid before determining cell survival by cell count. The final readout involved staining with sulforhodamine B (SRB), a cost-effective method amenable to automation and high throughput analysis. At the technical level, “cell sensitivity” is often inferred from short term (1-2 day) observations such as apoptosis, which may not be a satisfactory model of clonogenic survival.
(§2) Cell Lines and Culture Medium. All cell lines used in this study have been described previously (Parsons et al., 1986; Todaro et al., 1980; Glenn et al., 2004). All cell lines were cultured in 10% heat-inactivated foetal calf serum (CSL, Australia) in RPMI 1640 medium supplemented with 100 U/mL penicillin, 100 μg/mL streptomycin, and 3 mM HEPES at 5% CO2, 99% humidity at 37° C. Primary human fibroblasts were obtained from neonatal foreskins and cultured in the above medium. Routine mycoplasma tests were performed using Hoechst stain^i and were always negative.
(§3) Cell Survival Assay. Cells were plated into 96-well microtitre plates at 5×10^3 cells/well, and allowed to adhere overnight. Test compounds were added to culture medium at the indicated concentrations, and plates incubated in the above conditions for 24 hours. Following this incubation period, compounds and media were removed, and replaced with fresh culture medium. Cells were then grown for a further 72 hours before assay using sulforhodamine B (SRB; Sigma, St. Louis, Mo.) as previously described. Briefly, the culture medium was removed from the 96-well microtitre plates and the plates washed twice with phosphate buffered saline (PBS), before the cells were fixed with methylated spirits for 15 minutes. The plates were then rinsed with tap water and the fixed cells stained with 50 μL/well of SRB solution (0.4% sulforhodamine B (w/v) in 1% (v/v) acetic acid) over a period of 1 hour. The SRB solution was then removed from the wells and the plates rapidly washed two times with 1% (v/v) acetic acid. Protein bound dye was then solubilised with the addition of 100 μL of 10 mM unbuffered Tris, and incubated for 15 min at 25° C. Plates were then read at 564 nm on a VERSA max tunable microplate reader (Molecular Devices, Sunnyvale, Calif.).

[2] = test system: NFF, neonatal foreskin fibroblasts; experiment: Cell survival assay (clonogenic survival, SRB), normal cells; assay type: cell-based, human; settings: SRB
Method: as §1, §2, §3

[3] = Homo sapiens, MM96L, MM96L melanoma, 24 h with compound, further 72 h growth, SRB, read-out: IC50 (uM) MM96L
[4] = Homo sapiens, Fibroblast, NFF normal fibroblasts, 24 h with compound, further 72 h growth, read-out: IC50 (uM) NFF
[5] = Homo sapiens, MM96L, 24 h, Table 6, 24 hours with compound, further growth, SRB, read-out: IC50 (μM) MM96L
[6] = Table 6, IC50 (NFF)/IC50 (MM96L)
[7] = Homo sapiens, Fibroblast, 24 h, Table 6, 24 hours with compound, further growth, read-out: IC50 (μM) NFF
[8] = Table 8, 24 hours with compound, further growth, SRB, read-out: IC50 (μM) MM96
[9] = Table 8, IC50 (NFF)/IC50 (MM96L)
[10] = Table 8, 24 hours with compound, further growth, read-out: IC50 (μM) NFF
[11] = Table 5, 24 hours with compound, further growth, SRB, read-out: IC50 MM96L
[12] = Table 5, Selectivity Index = IC50 (NFF)/IC50 (MM96L)
[13] = Table 5, 24 hours with compound, further growth, read-out: IC50 NFF

With O=C(CCCCC[C@H](NC(=O)c1ccc(Br)cc1)C(=O)NCc1ccncc1)NO [Example 158] the IC50 [1, 3] was 0.837 µM, the “SI (Selectivity Index = IC50 (NFF)/IC50 (MM96L))” value [1] was 6.3 and the IC50 [2, 4] was 5.24 µM.
In the case of CN(C)c1ccc(C(=O)N[C@@H](CSCCCC(=O)NO)C(=O)Nc2cccc3cc4ccccc4cc23)cc1 [Example 71], the IC50 [1, 5] is reported as 1.7 ± 0.3 µM, the Selectivity [1, 6] is reported as 1.3 and the IC50 [2, 7] is reported as 2.2 ± 0.3 µM.
With CN(C)c1ccc(C(=O)N[C@@H](CSCCCC(=O)NO)C(=O)NCc2ccc(C(=O)Nc3ccc4ncccc4c3)cc2)cc1 [Example 116] the IC50 [1, 8] was 2.23 µM, the Selectivity [1, 9] was 2.5 and the IC50 [2, 10] was 5.57 µM.
For Cc1ccnc(NC(=O)[C@H](CSCCCC(=O)NO)NC(=O)c2ccc(N(C)C)cc2)c1 [Example 79], the IC50 [1, 5] was 1.12 ± 0.06 µM, the Selectivity [1, 6] was 10.0 and the IC50 [2, 7] was 11.2 ± 0.7 µM.
CC(C)=CC(=O)N[C@@H](CSCCCC(=O)NO)C(=O)NCc1ccccc1 [Example 53] showed an IC50 [1, 11] of 11 ± 1 µM, a Selectivity [1, 12] of 2.0 and an IC50 [2, 13] of 22 ± 1 µM.
O=C(CCCCC[C@H](NC(=O)c1cc2c(Br)cccc2[nH]1)C(=O)NCc1ccccc1)NO [Example 165] was tested, and the IC50 [1, 3] was 0.485 µM, the “SI (Selectivity Index = IC50 (NFF)/IC50 (MM96L))” value [1] was 4.0 and the IC50 [2, 4] was 1.94 µM.
With CN(C)c1ccc(NC(=O)[C@H](CCCCCC(=O)NO)NC(=O)OCc2ccccc2)cc1 [Example 151] the IC50 [1, 3] was 0.61 µM, the “SI (Selectivity Index = IC50 (NFF)/IC50 (MM96L))” value [1] was 1.1 and the IC50 [2, 4] was 0.65 µM.
Compound CN(C)c1ccc(C(=O)N[C@@H](CSCCCC(=O)NO)C(=O)Nc2cccc3ccccc23)cc1 [Example 65] has an IC50 [1, 5] of 1.3 ± 0.1 µM, a Selectivity [1, 6] of 4.5 and an IC50 [2, 7] of 5.9 ± 0.7 µM.
With O=C(CCCCC[C@H](NC(=O)C12CC3CC(CC(C3)C1)C2)C(=O)NCc1ccccc1)NO [Example 139] the IC50 ([1]; MM96L melanoma, 24 h with compound, further 72 h growth, SRB, read-out: IC50 (uM) MM96L) was 3.95 µM, the “SI (Selectivity Index = IC50 (NFF)/IC50 (MM96L))” value [1] was 1.8 and the IC50 ([2]; NFF normal fibroblasts, 24 h with compound, further 72 h growth, read-out: IC50 (uM) NFF) was 7.13 µM.
Work on COC(=O)c1ccc(NC(=O)[C@H](CSCCCC(=O)NO)NC(=O)c2ccc(N(C)C)cc2)cc1 [Example 63] yielded an IC50 [1, 5] of 0.96 ± 0.07 µM and an IC50 [2, 7] of 2.8 ± 0.1 µM.
In the case of O=C(CCCCC[C@H](NC(=O)c1ccc([N+](=O)[O-])cc1)C(=O)NCc1ccccc1)NO (racemic) [Example 135], the IC50 [1, 3] is reported as 6 ± 1 µM, the “SI (Selectivity Index = IC50 (NFF)/IC50 (MM96L))” value [1] is reported as 1.5 and the IC50 [2, 4] is reported as 9 ± 2 µM.
With CN(C)c1ccc(C(=O)N[C@@H](CSCCCC(=O)NO)C(=O)NCc2ccc(C(=O)NCc3nc4ccccc4[nH]3)cc2)cc1 [Example 113] the IC50 [1, 8] was 3.96 µM, the Selectivity [1, 9] was 4.0 and the IC50 [2, 10] was 15.8 µM.
With C/C=C/C(=O)N[C@@H](CSCCCC(=O)NO)C(=O)NCc1ccccc1 [Example 52] the IC50 [1, 11] was 11 ± 0.7 µM, the Selectivity [1, 12] was over 9 and the IC50 [2, 13] was over 100 µM.
Compound O=C(CCCSC[C@H](NC(=O)C1CCC(=O)N1)C(=O)NCc1ccccc1)NO (stereo partly drawn) [Example 56] has an IC50 [1, 11] of 4.4 ± 0.3 µM, a Selectivity [1, 12] of 2.2 and an IC50 [2, 13] of 9.6 ± 0.9 µM.
Work on O=C(/C=C/c1ccccc1)N[C@@H](CSCCCC(=O)NO)C(=O)NCc1ccncc1 [Example 100] yielded an IC50 ([1]; Homo sapiens, MM96L, 24 h, Table 7, 24 hours with compound, further growth, SRB, read-out: IC50 (μM) MM96L) of 0.34 ± 0.02 µM, an IC50 ([1]; Homo sapiens, MM96L, most preferred compounds, exemplary examples, read-out: potency of IC50 against the MM96 melanoma cells) of at most 0.5 µM and a Selectivity ([1]; Table 7, IC50 (NFF)/IC50 (MM96L)) of 4.8. For the same compound, the IC50 ([2]; Homo sapiens, Fibroblast, 24 h, Table 7, 24 hours with compound, further growth, read-out: IC50 (μM) NFF) was 1.6 ± 0.2 µM.
CN(C)c1ccc(C(=O)N[C@@H](CSCCCC(=O)NO)C(=O)Nc2ccncc2)cc1 [Example 77] showed an IC50 [1, 5] of 1.8 ± 0.2 µM, a Selectivity [1, 6] of 4.1 and an IC50 [2, 7] of 7.2 ± 0.8 µM.
With O=C(CCCSC[C@H](NC(=O)c1ccccc1[N+](=O)[O-])C(=O)NCc1ccccc1)NO [Example 32] the IC50 [1, 11] was 10.6 ± 0.1 µM, the Selectivity [1, 12] was over 10 and the IC50 [2, 13] was over 100 µM.
CN(C)c1ccc(C(=O)N[C@@H](CSCCCC(=O)NO)C(=O)Nc2ccccc2Cc2ccccc2)cc1 [Example 64] was tested, and the IC50 [1, 5] was 3.5 ± 0.2 µM, the Selectivity [1, 6] was 1.9 and the IC50 [2, 7] was 6.8 ± 0.4 µM.
